# Results published in patent US20250381165A1, “Method of Use for Benzofuran Compounds” (Tampa Bay Research Institute, Inc., priority 2024, published 2025).
# Target: T1, MHC class I/SIINFEKL complex on DC2.4 (Mus musculus, UniProt P01901)
# T1 construct: DC2.4 are a C57Bl/6 lineage murine cell line and as such they express MHC class I H-2Kb and H-2Db; endogenous in cells; host or cells: DC2.4 (murine dendritic cell line, from Dr. Kenneth Rock)
# T1 sequence (P01901 22-369): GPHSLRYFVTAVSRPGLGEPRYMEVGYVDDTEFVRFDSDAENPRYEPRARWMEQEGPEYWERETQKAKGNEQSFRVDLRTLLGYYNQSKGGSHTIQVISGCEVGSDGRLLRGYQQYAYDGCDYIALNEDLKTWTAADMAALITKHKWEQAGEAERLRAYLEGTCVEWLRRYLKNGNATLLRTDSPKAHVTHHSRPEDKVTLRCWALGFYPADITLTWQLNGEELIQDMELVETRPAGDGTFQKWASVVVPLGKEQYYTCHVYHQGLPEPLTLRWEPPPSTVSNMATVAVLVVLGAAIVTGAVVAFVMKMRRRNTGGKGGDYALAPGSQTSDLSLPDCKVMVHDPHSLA
# T1 sequence (P01887 21-119 partner): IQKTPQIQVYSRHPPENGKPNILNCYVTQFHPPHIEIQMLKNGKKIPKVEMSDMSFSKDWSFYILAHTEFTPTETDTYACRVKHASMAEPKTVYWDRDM
# Experiment: SIINFEKL binding to DC2.4, flow cytometry with 25-D1.16 antibody
# Type: cell-based, murine
# Procedure: To detect binding of peptides to MHC class I H2Kb molecules on various murine cells, the cells were cultured as previously described and treated for various times as indicated in results and figure legends. Cells were centrifuged and washed using cold FACS buffer (DPBS with 5% FBS, 2 mM EDTA, 0.1% sodium azide). Cells were blocked using Fc block (bioLegend™; cat. no. 101320) for 10 min to 15 min to inhibit non-specific binding, followed by staining with fluorophore-conjugated antibody PE-labeled anti-MHC I/SIINFEKL (clone 25-D1.16; Invitrogen™, Thermo Fisher Scientific Inc., Waltham, MA; cat. no. 12-5743-82), for 30 min at 4° C. After washing, the cells were subjected to flow cytometric analysis with the Attune NxT Flow Cytometer (Invitrogen). Cells were gated based on live single-cell populations and positives were assessed using isotype controls and fluor-minus-one analysis when needed. Data were analyzed using the Attune NxT software or FlowJo versions 10.7 and 10.8.
# To evaluate the potential of BzFβ to enhance peptide loading under conditions used to prepare DC vaccines, 1×10^6 DC2.4 cells were pretreated with 50 μg/mL BzFβ for 1 h in a total volume of 200 μL OptiMEM, then pulsed for 1 h with concentrations of SIINFEKL (1-10 μg/mL) often used for the in vitro production of DC vaccines. The cells were then stained for 30 min in 200 μL HBSS/2% FCS containing 0.4 μg PE-labeled MHC class I/SIINFEKL specific antibody, 25-D1.16.
# By using an MHC class I H-2K^b specific antibody, a relative comparison of the surface MHC class I was measured before and after BzFβ treatment of DC2.4 and IMG cells. These cells were treated with 25 μg/mL BzFβ for 0-4 h. Cells were centrifuged and washed using cold FACS buffer (DPBS with 5% FBS, 2 mM EDTA, 0.1% sodium azide). […] Cells were gated based on live single-cell populations and positives were assessed using isotype controls and fluor-minus-one analysis when needed. Data were analyzed using the Attune NxT software or FlowJo versions 10.7 and 10.8.
# Cultured cells were treated for various times as indicated in results and figure legends. […] Cells were gated based on live single-cell populations and positives were assessed using isotype controls and fluor-minus-one analysis when needed. Data were analyzed using the Attune NxT software or FlowJo versions 10.7 and 10.8.
smiles,measurement,setting,value
"O=C(O)/C=C/c1ccc2occc2c1 [BzFβ, (2E)-3-(1-benzofuran-5-yl)prop-2-enoic acid]",peptide binding under DC vaccine conditions,"50 μg/mL BzFβ 1 h, then 1 h SIINFEKL 1-10 μg/mL",significant enhancement of peptide binding
same,SIINFEKL peptide binding to DC2.4,"25 or 50 μg/mL, up to 24 h",significantly enhance peptide binding
same,peptide detected per cell,"2 h pretreatment 50 μg/mL BzFβ, then 1 h 1, 5 or 10 μg/mL SIINFEKL",significantly more peptide was detected per cell
same,binding of SIINFEKL to surface MHC class I,"DC2.4, 25 μg/mL BzFβ 0-4 h",able to enhance the binding of SIINFEKL
